Reference: US10287617B2, “Methods for in vitro—in vivo efficacy determination” (COLORADO STATE UNIVERSITY RESEARCH FOUNDATION, priority 2014, dated 2019)
In brackets after ≈: the same amount, converted by molar mass. Entries after “also recorded” stand apart in the source; their conditions may differ. Like-named read-outs stand apart in the source and are kept apart here. Marks after values point to notes of the source that are not given here.

Experiments:
M. tuberculosis NHN20 = assay: microbe, parasite or virus in culture; assay type: cell-based, Mycobacterium tuberculosis
M. tuberculosis W210 = assay: microbe, parasite or virus in culture; assay type: cell-based, Mycobacterium tuberculosis
M. tuberculosis NHN382 = assay: microbe, parasite or virus in culture; assay type: cell-based, Mycobacterium tuberculosis
[1] = tested on: M. tuberculosis clinical isolates; assay: microbe, parasite or virus in culture; assay type: cell-based, Mycobacterium tuberculosis; settings: for MIC: Mycobacterium tuberculosis, read-out: minimal inhibitory concentrations
[2] = Oxidative metabolic lability in human liver microsomes; settings: for Liver Microsome Lability Human: 5 μM, 1 mg/mL microsomal protein, 20 min
Experimental: (§3) Microsomal fractions were prepared in the Drug Disposition Domain at DSAR Montpellier (371 rue du Pr. J. Blayac, 34184 Montpellier Cedex 04, France). […] The flavin-containing monooxygenases (FMO)-dependent reactions were run in the presence of bovine serum albumin (BSA, 0.1%) for the duration of 0 and 20 min (with or without microsomal proteins and/or cofactors). […] Following protein precipitation with acetonitrile and their removal by centrifugation, supernatant fluids were analyzed by LC/MS-MS.
(§4) Thermo Finnigan TSQ Quantum Ultra instrument, ESI positive ion ionization mode. Each compound is studied in duplicates. Results are expressed in percentage of lability (or total metabolism). Total metabolism=[1−(UC_Peak Area+Cofactor at T20)/(UC_Peak Area Reference at T0)]×100
(§5) The reactions were prepared as described and were run in the presence of bovine scrum albumin (BSA, 0.1%) for the duration of 0 and 20 min (with or without microsomal proteins and/or cofactors). Enzyme activity was stopped, the protein was precipitated and removed by centrifugation. The supernatant fluids were analyzed by LC/MS-MS. […] A Thermo Finnigan TSQ Quantum Ultra instrument, ESI positive ion ionization mode was used for MS/MS. Each compound was studied in duplicates. Results are expressed in percentage of lability (or total metabolism) using the following formula: Total metabolism=[1−(UC_Peak Area+Cofactor at T20)/(UC_Peak Area Reference at T0)]×100 where UC=Unchanged Compound; “Reference” sample was NADPH for liver microsomal preparation.

M. tuberculosis H37Rv [3] = assay: MIC / dose response by modified microplate Alamar Blue assay (MABA); assay type: cell-based, Mycobacterium tuberculosis
[4] = Oxidative metabolic lability in mouse liver microsomes; settings: for Liver Microsome Lability Mouse: 5 μM, 1 mg/mL microsomal protein, 20 min
Experimental: as §3, §4, §5

[5] = 100 ng/mL
Experimental: (§6) Plasma was spiked with the compound in order to obtain a final drug concentration of 100 ng/mL (expressed as non-salified compound). The spiked plasma (dedicated to C1h and C4h) was then incubated at 37° C. for 1 h and 4 h. Plasma samples were analyzed by LC-MS/MS following protein precipitation. The limit of quantification for compounds was 10 ng/mL.
(§7) 10 μL of the sample was injected to Luna Phenomenex C8 (50 mm×2.0 mm, 3 μm). Solvent A: ammonium acetate (0.15 g)/formic acid (2 mL)/HPLC water up to 1000 mL. Solvent B: ammonium acetate (0.15 g)/formic acid (2 mL)/Methanol (200 mL)/Acetonitrile up to 1000 mL, flow rate of 0.3 mL/min, t=0-6 min. gradient of 10-90% of B. Retention time for SB-P17G-C2 was 1.85 min and for SB-P17G-A20 was 3.3 min. MS/MS condition used for detection: Finnigan TSQ Quantum disco instrument, Excalibur version 2.0 acquisition system, ESI positive ion ionization mode. The mean percent of difference between C1h or C4h and C0 concentrations was calculated. M % D (%)=100×[(C1h or C4h)−C0]/C0
(§8) The compounds were considered as stable if the mean percent of difference between C4h and C0 concentrations was less than 20%.

M. tuberculosis = assay: Benzimidazoles activity tested in animals (animal models of infection, Table A); assay type: in vivo, mouse; settings: Table A
Experimental: (§1) Further analysis using the methods described herein was performed on the compounds found in Tables A and B (bold font compounds are shown in FIG. 11) resulting in the data found therein.
Compound efficacy was assessed in two murine models of infection based on the short term model described previously (Lenaerts et al., Antimicrob. Agents Chemother. 2003; 47:783-785). All aerosol infections were performed using a Middlebrook aerosol generation devise (Glas-Col, Terre Haute, Ind.).

M. tuberculosis H37Rv [6] = assay: Growth inhibition / time dose curves (OD600 and CFU); assay type: cell-based, Mycobacterium tuberculosis; settings: for reduction in number of viable bacteria: 1×MIC
M. tuberculosis Erdman = assay type: in vivo; settings: for Δ Lungs (difference between means of Test and Control Groups) / Δ Spleen (difference between means of Test and Control Groups) / Log10CFU Lungs / Log10CFU Spleen: 50 mg/kg b.i.d. (Inh q.d.); for Log10CFU Lungs / Log10CFU Spleen: day 15
Vero cells = assay: Cytotoxicity assay (resazurin, 72 h); assay type: cell-based; settings: at 200 μg/mL
Experimental: (§2) The cytotoxicity assay was performed as described previously^16. Briefly compounds were serially diluted in 96 well plates.

[7] = Cytotoxicity assay (resazurin, 72 h); assay type: cell-based; settings: African green monkey, Vero cells; 72 h
Experimental: as §2

[8] = tested on: Mycobacteria tuberculosis; assay: MIC and drug response curve type (Tables A and B); assay type: cell-based, Mycobacterium tuberculosis; settings: Table A; for Curve: drug response curve type; for MIC: in µg/mL
Experimental: A drug concentration response curve can be generated by graphing the log10 drug concentrations (μg/mL) against the difference in growth between the drug-treated wells and control wells. See FIG. 3C, and FIG. 5 (entries for SB-P23D8 and SB-P26D9). A NREBA is indicative of bacteriostatic activity above the MIC.
as §1
MIC values were determined for the benzimidazoles using a modified 96-well microplate Alamar Blue (resazurin) assay (MABA) (see Kumar et al., J. Med. Chem. 2011; 54:374-381; Collins and Franzblau, Antimicrob. Agents Chemother. 1997; 41:1004-1009). Dose response curves were generated from the MABA assay for compounds by graphing the log10 drug concentrations against the difference in growth between the drug-treated wells and control wells using GraphPad Prism Version 5.0d for Mac OS X (GraphPad Software, San Diego Calif., USA, www.graphpad.com). For time dose studies, bacterial growth in the presence of compound was monitored by the O.D. 600 nm. […] The values were plotted against time using GraphPad Prism Version 5.0d for Mac OS X (GraphPad Software, San Diego Calif., USA, www.graphpad.com).

M. tuberculosis TN587 = assay: microbe, parasite or virus in culture; assay type: cell-based, Mycobacterium tuberculosis
[9] = Plasma stability in mouse plasma; settings: percent remaining
Experimental: as §6, §7, §8

Mtb FtsZ = Mtb FtsZ (Mycobacterium tuberculosis, UniProt P9WN95); assay: FtsZ polymerization by transmission electron microscopy; assay type: biochemical; settings: FtsZ 5 μM, GTP 25 μM, compound 40 μM and 80 μM
[10] = tested on: M. tuberculosis clinical isolates; settings: previously reported; cited from earlier work
M. tuberculosis H37Rv [11] = settings: previously reported SAR study; cited from earlier work
[12] = Mycobacterium tuberculosis, H37RV
[13] = 50 mg/kg b.i.d. via either IP or PO

Chain of Mtb FtsZ (P9WN95 whole entry, looked up): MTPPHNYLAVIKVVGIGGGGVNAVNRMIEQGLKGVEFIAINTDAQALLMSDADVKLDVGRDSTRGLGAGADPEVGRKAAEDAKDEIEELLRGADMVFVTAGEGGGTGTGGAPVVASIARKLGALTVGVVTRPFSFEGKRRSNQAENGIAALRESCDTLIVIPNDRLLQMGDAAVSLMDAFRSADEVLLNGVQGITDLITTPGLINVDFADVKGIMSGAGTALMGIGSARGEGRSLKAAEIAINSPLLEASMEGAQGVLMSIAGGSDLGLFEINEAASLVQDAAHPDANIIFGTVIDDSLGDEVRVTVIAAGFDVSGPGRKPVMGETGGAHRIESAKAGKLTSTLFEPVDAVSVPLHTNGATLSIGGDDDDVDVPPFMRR

Compound | MIC (M. tuberculosis NHN20; Mycobacterium tuberculosis) [µg/mL] | MIC (M. tuberculosis W210; Mycobacterium tuberculosis) [µg/mL] | MIC (M. tuberculosis NHN382; Mycobacterium tuberculosis) [µg/mL] | MIC [1] [µg/mL] | Liver Microsome Lability Human [2] [%] | MIC (M. tuberculosis H37Rv [3]; H37Rv) [µg/mL] | MIC (M. tuberculosis H37Rv [3]; [12]) [µg/mL] | Liver Microsome Lability Mouse [4] [%] | Efficacy Lung (M. tuberculosis) | Efficacy Spleen (M. tuberculosis) | reduction in number of viable bacteria (M. tuberculosis H37Rv [6]; day 2) [Log10 CFU] | reduction in number of viable bacteria (M. tuberculosis H37Rv [6]; day 6) [Log10 CFU] | reduction of bacterial load in the lungs (M. tuberculosis Erdman; [13]) | Δ Lungs (difference between means of Test and Control Groups) (M. tuberculosis Erdman; IP) | Δ Spleen (difference between means of Test and Control Groups) (M. tuberculosis Erdman; IP) | Log10CFU Lungs (M. tuberculosis Erdman; IP) [Log10 CFU] | Log10CFU Spleen (M. tuberculosis Erdman; IP) [Log10 CFU] | Δ Lungs (difference between means of Test and Control Groups) (M. tuberculosis Erdman; PO) | Curve [8] | MIC [8] | other results
CN(C)c1cc2[nH]c(C3CCCCC3)nc2cc1NC(=O)c1ccc(OC(F)(F)F)cc1F [SB-P17G-A38] | 0.24 ± 0.11 (≈ 0.517 µM) | 0.47 ± 0.22 (≈ 1.01 µM) | 0.31 (≈ 0.667 µM) | 0.16 to 0.47 (≈ 0.344 to 1.01 µM) | 13 | 0.31 ± 0.22 (≈ 0.667 µM) | 0.31 ± 0.22 (≈ 0.667 µM) | 4 | Yes | Yes | 2.8 | 2.9 | 6.1-6.3 Log10 CFU | −6.30*** Log10 CFU | −4.96*** Log10 CFU | 0.39 ± 0.63 | 0 ± 0 | −6.10*** Log10 CFU | Sigmoid | .156 | Plasma Stability (% hydrolysis) Mouse (4 h) [5]: −11.5%; reduction in bacterial viability (M. tuberculosis H37Rv [6]; 3-6×MIC): 3.6-4.4 Log10 CFU; Δ Spleen (difference between means of Test and Control Groups) (M. tuberculosis Erdman; PO): −3.89*** Log10 CFU; Log10CFU Lungs (M. tuberculosis Erdman; PO): 0.22 ± 0.34 Log10 CFU; Log10CFU Spleen (M. tuberculosis Erdman; PO): 0 ± 0 Log10 CFU; reduction of bacterial load in the lungs (M. tuberculosis Erdman; delivered IP, 50 mg/kg b.i.d.): 6.3 Log10 CFU; reduction of bacterial load in the lungs (M. tuberculosis Erdman; delivered PO, 50 mg/kg b.i.d.): 6.1 Log10 CFU; cytotoxicity in Vero cells (Vero cells): not cytotoxic; also recorded: non-toxic; IC50 at 72 h [7]: > 200 µg/mL; MIC (M. tuberculosis TN587; Mycobacterium tuberculosis): 0.31 µg/mL (≈ 0.667 µM)
CN(C)c1cc2nc(C3CCCCC3)[nH]c2cc1NC(=O)c1ccc(OC(F)(F)F)cc1 [SB-P17G-A20] | – | – | – | – | 39 | 0.16 (≈ 0.358 µM) | – | 45 | Yes | Yes | – | – | – | – | – | – | – | – | Sigmoid | .31 | MIC (M. tuberculosis NHN20): 0.16 µg/mL (≈ 0.358 µM); MIC (M. tuberculosis W210): 0.16 µg/mL (≈ 0.358 µM); MIC (M. tuberculosis NHN382): 0.16 µg/mL (≈ 0.358 µM); plasma stability (4 hours) in mice [9]: 75.6%; MIC against different clinical strains [1]: 0.16 µg/mL (≈ 0.358 µM); metabolic stability (liver microsomes) in humans ([2]; percent remaining): 61%; MIC (M. tuberculosis H37Rv [3]): 0.16 μg/m; metabolic stability (liver microsomes) in mice ([4]; percent remaining): 55%; effect on FtsZ polymerization and aggregation (TEM) (Mtb FtsZ): fewer, shorter and thinner FtsZ polymers; concentration that steadily reduced bacterial viability (M. tuberculosis H37Rv [6]; CFU plating): 0.08 µg/mL; lowest concentration at which bacterial growth was reduced (M. tuberculosis H37Rv [6]; in some cases): 0.125 ×MIC; MIC (M. tuberculosis TN587): 0.16 µg/mL (≈ 0.358 µM)
CCCCOC(=O)Nc1cc2nc(C3CCCCC3)[nH]c2cc1N(C)C [SB-P17G-C2] | – | – | – | – | 90 | – | – | 96 | Yes (.3464) | No | – | – | – | – | – | – | – | – | Sigmoid | .063 | MIC against clinical isolates [10]: 0.06 to 0.13 µg/mL; MIC (M. tuberculosis H37Rv [11]): 0.06 µg/mL (≈ 0.167 µM)
CN(C)c1cc2[nH]c(C3CCCCC3)nc2cc1NC(=O)c1ccc(C(F)(F)F)cc1F [SB-P17G-A42] | 0.16 (≈ 0.357 µM) | 0.31 (≈ 0.691 µM) | 0.16 (≈ 0.357 µM) | 0.16 to 0.47 (≈ 0.357 to 1.05 µM) | 12 | 0.18 ± 0.1 (≈ 0.401 µM) | 0.18 ± 0.1 (≈ 0.401 µM) | 13 | Yes | Yes | 2.5 | ~4 | 5.6-5.8 Log10 CFU | −5.78*** Log10 CFU | −4.96*** Log10 CFU | 0.91 ± 0.64 | 0 ± 0 | −5.65*** Log10 CFU | Sigmoid | .156 | Δ Spleen (difference between means of Test and Control Groups) (M. tuberculosis Erdman; PO): −3.89*** Log10 CFU; Log10CFU Lungs (M. tuberculosis Erdman; PO): 0.66 ± 0.43 Log10 CFU; Log10CFU Spleen (M. tuberculosis Erdman; PO): 0 ± 0 Log10 CFU; reduction of bacterial load in the lungs (M. tuberculosis Erdman; delivered IP, 50 mg/kg b.i.d.): 5.8 Log10 CFU; reduction of bacterial load in the lungs (M. tuberculosis Erdman; delivered PO, 50 mg/kg b.i.d.): 5.6 Log10 CFU; cytotoxicity in Vero cells (Vero cells): not cytotoxic; also recorded: non-toxic; MIC (M. tuberculosis TN587; Mycobacterium tuberculosis): 0.24 ± 0.11 µg/mL (≈ 0.535 µM)
